From patent US20060058325A1, “Therapeutic quniazoline derivatives” (AstraZeneca AB, priority 2002, published 2006)

How the values were obtained:
Aurora-A = target: T1, Aurora-A (Homo sapiens, UniProt O14965); test: In vitro Aurora-A kinase inhibition test; assay type: biochemical
T1 construct: made in house; host or cells: Spodoptera frugiperda Sf21 insect cells (baculovirus)
T1 sequence (O14965 1-403): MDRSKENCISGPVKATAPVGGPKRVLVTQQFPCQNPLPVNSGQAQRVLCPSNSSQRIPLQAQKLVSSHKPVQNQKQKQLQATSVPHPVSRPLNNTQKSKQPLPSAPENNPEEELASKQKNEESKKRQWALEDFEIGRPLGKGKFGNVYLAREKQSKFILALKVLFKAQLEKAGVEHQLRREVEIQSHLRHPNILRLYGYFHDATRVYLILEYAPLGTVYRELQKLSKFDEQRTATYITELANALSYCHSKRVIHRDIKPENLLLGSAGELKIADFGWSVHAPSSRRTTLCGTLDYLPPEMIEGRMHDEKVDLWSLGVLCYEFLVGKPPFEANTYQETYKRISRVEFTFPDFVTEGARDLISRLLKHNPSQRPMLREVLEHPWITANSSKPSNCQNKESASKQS

Aurora-B = target: T2, Aurora-B (Homo sapiens, UniProt Q96GD4); test: In vitro Aurora-B kinase inhibition test; assay type: biochemical; conditions: recombinant Aurora-B, 33P-ATP peptide substrate, 60 minutes room temperature; read-out: concentration giving 50% inhibition of enzyme activity
T2 construct: 6-histidine; made in house; host or cells: Spodoptera frugiperda Sf21 insect cells (baculovirus)
T2 sequence (Q96GD4 whole entry): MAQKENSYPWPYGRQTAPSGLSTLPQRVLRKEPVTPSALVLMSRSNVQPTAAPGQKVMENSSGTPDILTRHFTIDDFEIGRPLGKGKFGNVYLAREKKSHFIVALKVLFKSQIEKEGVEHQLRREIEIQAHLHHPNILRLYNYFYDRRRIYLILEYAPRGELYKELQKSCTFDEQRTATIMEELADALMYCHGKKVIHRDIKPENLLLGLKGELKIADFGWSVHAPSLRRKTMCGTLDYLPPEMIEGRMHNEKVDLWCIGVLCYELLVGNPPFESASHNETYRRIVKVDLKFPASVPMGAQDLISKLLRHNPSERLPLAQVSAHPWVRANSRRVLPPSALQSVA
From the text: (b) In Vitro Aurora-B Kinase Inhibition Test
This assay determines the ability of a test compound to inhibit serine-threonine kinase activity. DNA encoding Aurora-B may be obtained by total gene synthesis or by cloning. This DNA may then be expressed in a suitable expression system to obtain polypeptide with serine-threonine kinase activity. In the case of Aurora-B, the coding sequence was isolated from cDNA by polymerase chain reaction (PCR) and cloned into the pFastBac system in a manner similar to that described above for Aurora-A (i.e. to direct expression of a 6-histidine tagged Aurora-B protein).
For the large scale expression of Aurora-B kinase activity, Sf21 insect cells were grown at 28° C. in TC100 medium supplemented with 10% foetal calf serum (Viralex) and 0.2% F68 Pluronic (Sigma) on a Wheaton roller rig at 3 r.p.m. When the cell density reached 1.2×10^6 cells ml^−1 they were infected with plaque-pure Aurora-B recombinant virus at a multiplicity of infection of 1 and harvested 48 hours later. All subsequent purification steps were performed at 4° C. […]

SW620 cells [1] = test: In vitro cell proliferation assay (BrdU incorporation); assay type: cell-based; conditions: Homo sapiens, SW-620, 48 hours with compound, 2 hour BrdU labelling, read-out: concentration active in test (50% inhibition of BrdU incorporation)
From the text: (c) In Vitro Cell Proliferation Assay
This and other assays can be used to determine the ability of a test compound to inhibit the growth of adherent mammalian cell lines, for example the human tumour cell line SW620 (ATCC CCL-227). This assay determines the ability of at test compound to inhibit the incorporation of the thymidine analogue, 5′-bromo-2′-deoxy-uridine (BrdlD into cellular DNA. SW620 or other adherent cells were typically seeded at 1×10^5 cells per well in L-15 media (GIBCO) plus 5% foetal calf serum, 1% L-glutamine (100 μl /well) in 96 well tissue culture treated 96 well plates (Costar) and allowed to adhere overnight. The following day the cells were dosed with compound (diluted from 10 mM stock in DMSO using L-15 (with 5% FCS, 1% L-glutamine). Untreated control wells and wells containing a compound known to give 100% inhibition of BrdU incorporation were included on each plate. After 48 hours in the presence/absence of test compound the ability of the cells to incorporate BrdU over a 2 hour labelling period was determined using a Boelringer (Roche) Cell Proliferation BrdU ELISA kit (cat. No. 1 647 229) according to manufacturers directions. […] The optical density of the wells was then determined at 690 nm wavelength using a Titertek Multiscan plate reader. […]

SW620 cells [2] = test: In vitro cell cycle analysis assay (FACS DNA content); assay type: cell-based, human; conditions: 24 hours with compound
Procedure: (d) In Vitro Cell Cycle Analysis Assay
This assay determines the ability of a test compound to arrest cells in specific phases of the cell cycle. Many different mammalian cell lines could be used in this assay and SW620 cells are included here as an example. SW620 cells were seeded at 7×10^5 cells per T25 flask (Costar) in 5 ml L-15 (5% FCS, 1% L-glutamine). Flasks were then incubated overnight in a humidified 37° C. incubator with 5% CO2. The following day, 5 μl of L-15 (5% FCS, 1% L-glutamine) carrying the appropriate concentration of test compound solubilised in DMSO was added to the flask. A no compound control treatments was also included (0.5% DMSO). The cells were then incubated for a defined time (24 hours) with compound. […]
Each sample was then syringed 10 times using 21-guage needle. The samples were then transferred to LPS tubes and DNA content per cell analysed by Fluorescence activated cell sorting (FACS) using a FACScan flow cytometer (Becton Dickinson). Typically 30,000 events were counted and recorded using CellQuest v1.1 software (Verity Software). Cell cycle distribution of the population was calculated using Modfit software (Verity Software) and expressed as percentage of cells with 2N (G0/G1), 2N-4N (S phase) and with 4N (G2/M) DNA content. […]

SMILES: CCN(CCCOc1cc2ncnc(Nc3cnc(NC(=O)c4ccc(F)c(Cl)c4)nc3)c2cc1OC)CCOP(=O)(O)O [Compound 24, 2-[(3-{[4-({2-[(3-chloro-4-fluorobenzoyl)amino]pyrimidin-5-yl}amino)-6-methoxyquinazolin-7-yl]oxy}propyl)(ethyl)amino]ethyl dihydrogen phosphate]
- IC50 (Aurora-A): 0.3 nM
- IC50 (Aurora-B): 12.3 nM
- IC50 (SW620 cells [1]): 300 nM
- concentration active in cell cycle analysis test (SW620 cells [2]): 1.5 µM
